Molecular target: T1, freshly isolated rat hepatocyte suspensions (Rattus norvegicus, UniProt P51639)
T1 sequence (P51639 1-887): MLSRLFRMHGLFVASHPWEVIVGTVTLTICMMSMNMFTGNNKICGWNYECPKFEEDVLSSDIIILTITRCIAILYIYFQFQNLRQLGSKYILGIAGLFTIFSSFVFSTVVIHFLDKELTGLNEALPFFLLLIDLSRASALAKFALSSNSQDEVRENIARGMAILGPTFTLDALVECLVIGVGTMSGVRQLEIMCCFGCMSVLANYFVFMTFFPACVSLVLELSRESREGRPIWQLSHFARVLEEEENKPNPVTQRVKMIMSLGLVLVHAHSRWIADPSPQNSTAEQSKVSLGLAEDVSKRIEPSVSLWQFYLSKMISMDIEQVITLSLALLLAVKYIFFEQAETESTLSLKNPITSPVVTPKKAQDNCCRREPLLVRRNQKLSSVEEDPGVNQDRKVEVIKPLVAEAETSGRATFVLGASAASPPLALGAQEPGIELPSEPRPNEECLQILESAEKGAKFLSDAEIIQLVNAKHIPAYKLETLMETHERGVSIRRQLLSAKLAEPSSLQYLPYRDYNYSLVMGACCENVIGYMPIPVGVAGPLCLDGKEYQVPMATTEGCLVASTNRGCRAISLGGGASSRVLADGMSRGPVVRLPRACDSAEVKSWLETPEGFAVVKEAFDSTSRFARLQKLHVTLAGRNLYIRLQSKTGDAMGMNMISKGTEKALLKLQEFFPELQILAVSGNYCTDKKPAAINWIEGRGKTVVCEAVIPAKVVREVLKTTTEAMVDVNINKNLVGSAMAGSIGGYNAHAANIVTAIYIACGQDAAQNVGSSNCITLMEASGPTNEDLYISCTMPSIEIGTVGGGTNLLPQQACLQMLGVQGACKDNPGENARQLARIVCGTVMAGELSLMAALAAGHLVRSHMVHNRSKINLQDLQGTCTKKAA
Assay: Cholesterol Synthesis in Freshly Isolated Rat Hepatocytes (14C-acetate incorporation into cholesterol)
Type: cell-based
Conditions: inhibition of 14C-acetate incorporation into cholesterol; 2.0 hours at 37° C; read-out: Hepatocytes 150
Protocol: 2) Cholesterol Synthesis in Freshly Isolated Rat Hepatocytes […]
a. Isolation of Rat Hepatocytes
Sprague Dawley rats (180-220 grams) are anesthetized with Nembutol (50 mg/kg). The abdomen is opened and the first branch of the portal vein is tied closed. Heparin (100-200 units) is injected directly into the abdominal vena cava. A single closing suture is placed on the distal section of the portal vein, and the portal vein is canulated between the suture and the first branching vein. The liver is perfused at a rate of 20 ml/minute with prewarmed (37° C), oxygenated buffer A (HBSS without calcium or magnesium containing 0.5 mM EDTA) after severing the vena cava to allow drainage of the effluent. The liver is additionally perfused with 200 ml of prewarmed buffer B (HBSS containing 0.05% bacterial collagenase). […] Pelleted hepatocytes are washed once in Waymouth's medium, counted and assayed for viability by trypan blue exclusion. […]
Lipids are extracted essentially as described by Bligh, E. G. and W. J. Dyer, Can. […] Plates are scanned and counted using a BioScan automated scanning system. Radiolabel in the cholesterol peak (RF 0.28) is determined and expressed at total counts per peak and as a percent of the label in the total lipid extract. […]
Drug effects (% inhibition of cholesterol synthesis) are determined by comparing % of label in cholesterol for control and drug treated cultures. […]

Question: Which IC50 does the source give for “(S)-4-[[[4-(4-Fluorophenyl)-1,2-bis(1-methylethyl)-5-phenyl-1H-pyrrol-3-yl]-ethynyl]hydroxyphosphinyl]-3-hydroxybutanoic acid, dilithium salt [SQ 34,346]” here?
Answer: 78 nM
